From patent US8802713B2, “3-alkoxy-1-phenylpyrazole derivatives and pesticides” (Kumiai Chemical Industry Co., Ltd., priority 2007, dated 2014)
Where two headings read alike, the source gives them in different places.

Tests used:
diamondback moth = assay: Insecticidal test on diamondback moth; type: in vivo; conditions: Plutella xylostella, 144 h
Experimental: A wettable powder prepared in accordance with Formulation Example 2 was diluted with water to a concentration of an active ingredient of 500 ppm. Cabbage leaves were dipped in this solution and dried in air and then put in a plastic cup having a capacity of 60 mL. 10 second-instar larvae of diamondback moth were released in the cup and the cup was lidded. Then, the cup was placed in a thermostatic chamber at 25° C. for 6 days, and dead moths were counted for calculation of the mortality by Equation 2. The test was carried out by one series system.

two-spotted spider mites = assay: Miticidal test on two-spotted spider mites (seedling dip); type: in vivo, Tetranvchus urticae; conditions: Glycine max, 312 h, read-out: protective value
Experimental: A wettable powder prepared in accordance with Formulation Example 2 was diluted with water to a concentration of an active ingredient of 500 ppm. Soybean seedlings which had been inoculated with imago two-spotted spider mites were dipped in the solution and dried in air. The treated soybean seedlings were placed in a thermostatic chamber at 25° C. for 13 days, and the number of live mites were assessed for calculation of the protective value by Equation 1. The test was carried out by one series system.

cotton bollworm = assay: Insecticidal test on cotton bollworm; type: in vivo; conditions: Helicoverpa armigera, 144 h
Experimental: A wettable powder prepared in accordance with Formulation Example 2 was diluted with water to a concentration of an active ingredient of 500 ppm. Cabbage leaves were dipped in this solution and dried in air and then put in a plastic cup having a capacity of 60 mL. Five hatched larvae of cotton bollworm were released in the cup, and the cup was lidded and placed in a thermostatic chamber at 25° C. for 6 days, and the number of dead larvae were assessed for calculation of the mortality by Equation 2. The test was carried out by two series system.

cotton aphid = assay: Insecticidal test on cotton aphid (seedling dip); type: in vivo; conditions: Aphis gossypii, 72 h
Experimental: A wettable powder prepared in accordance with Formulation Example 2 was diluted with water to a concentration of an active ingredient of 500 ppm. Cucumber seedlings which had been inoculated with larvae of cotton aphid were dipped in this solution and dried in air. The treated cucumber seedlings were placed in a thermostatic chamber at 25° C. for 3 days, and the live insects were counted for calculation of the mortality by Equation 2. The test was carried out by one series system.

brown rice planthopper = assay: Insecticidal test on brown rice planthopper; type: in vivo; conditions: 144 h
Experimental: A wettable powder prepared in accordance with Formulation Example 2 was diluted with water to a concentration of an active ingredient of 500 ppm. Rice sprouts were dipped in this solution and put in a plastic cup having a capacity of 60 mL. Ten third-instar larvae of brown rice planthopper were released in the cup, the cup was lidded and placed in a thermostatic chamber at 25° C. for 6 days, and the number of dead larvae were counted for calculation of the mortality by Equation 2. The test was carried out by one series system.

[1] = 500 ppm active ingredient, soybean seedlings with imago mites dipped, 25° C., 13 days
[2] = 500 ppm active ingredient, cabbage leaves dipped, second-instar larvae, 25° C., 6 days, read-out: mortality
[3] = 500 ppm active ingredient, cabbage leaves dipped, hatched larvae, 25° C., 6 days, read-out: mortality
[4] = 500 ppm active ingredient, cucumber seedlings with larvae of cotton aphid dipped, 25° C., 3 days, read-out: mortality

Cc1cc(F)c(-n2nc(OC(F)(F)C(F)C(F)(F)F)cc2N)cc1SCC(F)(F)F (centres unmarked) [1-9, 5-amino-1-{2-fluoro-4-methyl-5-(2,2,2-trifluoroethylthio)phenyl}-3-(1,1,2,3,3,3-hexafluoropropoxy)pyrazole]
≥ 90%: mortality at 500 ppm (diamondback moth; in Brassica oleracea) | pest or weed control at 500 ppm (two-spotted spider mites; [1]) | mortality at 500 ppm (cotton bollworm; in Brassica oleracea) | mortality at 500 ppm (cotton aphid; in Cucumis sativus) | mortality at 500 ppm (brown rice planthopper)

CC(=O)Nc1cc(OC(F)(F)C(F)OC(F)(F)F)nn1-c1cc(SCC(F)(F)F)c(C)cc1F (centres unmarked) [1-15, 5-acetylamino-1-{2-fluoro-4-methyl-5-(2,2,2-trifluoroethylthio)phenyl}-3-{1,1,2-trifluoro-2-(trifluoromethoxy)ethoxy}pyrazole]
≥ 90%: mortality at 500 ppm (diamondback moth; in Brassica oleracea) | pest or weed control at 500 ppm (two-spotted spider mites; [1]) | mortality at 500 ppm (cotton bollworm; in Brassica oleracea) | mortality at 500 ppm (cotton aphid; in Cucumis sativus) | mortality at 500 ppm (brown rice planthopper)

CC(=O)Nc1cc(OC(F)(F)C(F)OC(F)(F)F)nn1-c1cc([S+]([O-])CC(F)(F)F)c(C)cc1F (centres unmarked) [1-16, 5-acetylamino-1-{2-fluoro-4-methyl-5-(2,2,2-trifluoroethylsulfinyl)phenyl}-3-{1,1,2-trifluoro-2-(trifluoromethoxy)ethoxy}pyrazole]
≥ 90%: mortality at 500 ppm (diamondback moth; in Brassica oleracea) | pest or weed control at 500 ppm (two-spotted spider mites; [1]) | mortality at 500 ppm (cotton bollworm; in Brassica oleracea) | mortality at 500 ppm (cotton aphid; in Cucumis sativus)

CC(=O)Nc1cc(OCC(F)(F)C(F)(F)F)nn1-c1cc(SCC(F)(F)F)c(C)cc1F [1-17, 5-acetylamino-1-{2-fluoro-4-methyl-5-(2,2,2-trifluoroethylthio)phenyl}-3-(2,2,3,3,3-pentafluoropropoxy)pyrazole]
≥ 90%: mortality at 500 ppm (diamondback moth; in Brassica oleracea) | pest or weed control at 500 ppm (two-spotted spider mites; [1]) | mortality at 500 ppm (cotton bollworm; in Brassica oleracea) | mortality at 500 ppm (cotton aphid; in Cucumis sativus) | mortality at 500 ppm (brown rice planthopper)

CC(=O)Nc1cc(OCC(F)(F)C(F)(F)C(F)(F)C(F)(F)F)nn1-c1cc(SCC(F)(F)F)c(C)cc1F [1-77, 5-acetylamino-1-{2-fluoro-4-methyl-5-(2,2,2-trifluoroethylthio)phenyl}-3-(2,2,3,3,4,4,5,5,5-nonafluoropentyloxy)pyrazole]
≥ 90%: mortality at 500 ppm (diamondback moth; [2]) | pest or weed control at 500 ppm (two-spotted spider mites) | mortality at 500 ppm (cotton bollworm; [3]) | mortality at 500 ppm (brown rice planthopper)

CC(=O)Nc1cc(OCC(F)(F)C(F)(F)C(F)(F)C(F)(F)F)nn1-c1cc([S+]([O-])CC(F)(F)F)c(C)cc1F (centres unmarked) [1-78, 5-acetylamino-1-{2-fluoro-4-methyl-5-(2,2,2-trifluoroethylsulfinyl)phenyl}-3-(2,2,3,3,4,4,5,5,5-nonafluoropentyloxy)pyrazole]
≥ 90%: mortality at 500 ppm (diamondback moth; [2]) | pest or weed control at 500 ppm (two-spotted spider mites) | mortality at 500 ppm (cotton bollworm; [3]) | mortality at 500 ppm (brown rice planthopper)

C#CCNc1cc(OCC(F)(F)C(F)(F)F)nn1-c1cc(SCC(F)(F)F)c(C)cc1F [1-161, 1-{2-fluoro-4-methyl-5-(2,2,2-trifluoroethylthio)phenyl}-3-(2,2,3,3,3-pentafluoropropoxy)-5-(2-propynylamino)pyrazole]
≥ 90%: mortality at 500 ppm (diamondback moth; in Brassica oleracea) | pest or weed control at 500 ppm (two-spotted spider mites; [1]) | mortality at 500 ppm (cotton bollworm; in Brassica oleracea) | mortality at 500 ppm (cotton aphid; in Cucumis sativus) | mortality at 500 ppm (brown rice planthopper)

CC(=O)Nc1cc(OCC(F)(F)C(F)(F)F)nn1-c1cc([S+]([O-])CC(F)(F)Cl)c(C)cc1F (centres unmarked) [1-178, 5-acetylamino-1-{2-fluoro-4-methyl-5-(2-chloro-2,2-difluoroethylsulfinyl)phenyl}-3-(2,2,3,3,3-pentafluoropropoxy)pyrazole]
≥ 90%: mortality at 500 ppm (diamondback moth; [2]) | mortality at 500 ppm (cotton bollworm; [3]) | mortality at 500 ppm (brown rice planthopper)

CNc1cc(OC(F)(F)C(F)C(F)(F)F)nn1-c1cc([S+]([O-])CC(F)(F)F)c(C)cc1F (centres unmarked) [1-187, 1-{2-fluoro-4-methyl-5-(2,2,2-trifluoroethylsulfinyl)phenyl}-3-(1,1,2,3,3,3-hexafluoropropoxy)-5-methylaminopyrazole]
≥ 90%: mortality at 500 ppm (diamondback moth; [2]) | mortality at 500 ppm (cotton bollworm; [3]) | mortality at 500 ppm (cotton aphid; [4]) | mortality at 500 ppm (brown rice planthopper)

CNc1cc(OC(F)(F)C(F)OC(F)(F)C(F)(F)C(F)(F)F)nn1-c1cc(SCC(F)(F)F)c(C)cc1F (centres unmarked) [1-347, 1-{2-fluoro-4-methyl-5-(2,2,2-trifluoroethylthio)phenyl}-5-methylamino-3-{1,1,2-trifluoro-2-(heptafluoropropoxy)ethoxy}pyrazole]
≥ 90%: mortality at 500 ppm (diamondback moth; [2]) | pest or weed control at 500 ppm (two-spotted spider mites) | mortality at 500 ppm (cotton bollworm; [3]) | mortality at 500 ppm (cotton aphid; [4]) | mortality at 500 ppm (brown rice planthopper)

C#CCNc1cc(OC(F)(F)C(F)OC(F)(F)C(F)(F)C(F)(F)F)nn1-c1cc(SCC(F)(F)F)c(C)cc1F (centres unmarked) [1-357, 1-{2-fluoro-4-methyl-5-(2,2,2-trifluoroethylthio)phenyl}-5-(2-propynylamino)-3-{1,1,2-trifluoro-2-(heptafluoropropoxy)ethoxy}pyrazole]
≥ 90%: mortality at 500 ppm (diamondback moth; [2]) | pest or weed control at 500 ppm (two-spotted spider mites) | mortality at 500 ppm (cotton bollworm; [3]) | mortality at 500 ppm (cotton aphid; [4]) | mortality at 500 ppm (brown rice planthopper)

CC(=O)Nc1cc(OC(F)(F)C(F)(F)C(F)(F)C(F)(F)C(F)(F)F)nn1-c1cc([S+]([O-])CC(F)(F)F)c(C)cc1F (centres unmarked) [1-489, 5-acetylamino-1-{2-fluoro-4-methyl-5-(2,2,2-trifluoroethylsulfinyl)phenyl}-3-(1,1,2,2,3,3,4,4,5,5,5-undecafluoropentyloxy)pyrazole]
≥ 90%: mortality at 500 ppm (diamondback moth; [2]) | pest or weed control at 500 ppm (two-spotted spider mites) | mortality at 500 ppm (cotton bollworm; [3])

CNc1cc(OC(F)(F)C(F)(F)C(F)(F)C(F)(F)C(F)(F)F)nn1-c1cc(SCC(F)(F)F)c(C)cc1F [1-524, 1-{2-fluoro-4-methyl-5-(2,2,2-trifluoroethylthio)phenyl}-5-methylamino-3-(1,1,2,2,3,3,4,4,5,5,5-undecafluoropentyloxy)pyrazole]
≥ 90%: mortality at 500 ppm (diamondback moth; [2]) | pest or weed control at 500 ppm (two-spotted spider mites) | mortality at 500 ppm (cotton bollworm; [3]) | mortality at 500 ppm (brown rice planthopper)

CNc1cc(OC(F)(F)C(F)(F)C(F)(F)C(F)(F)C(F)(F)F)nn1-c1cc([S+]([O-])CC(F)(F)F)c(C)cc1F (centres unmarked) [1-525, 1-{2-fluoro-4-methyl-5-(2,2,2-trifluoroethylsulfinyl)phenyl}-5-methylamino-3-(1,1,2,2,3,3,4,4,5,5,5-undecafluoropentyloxy)pyrazole]
≥ 90%: mortality at 500 ppm (diamondback moth; [2]) | pest or weed control at 500 ppm (two-spotted spider mites) | mortality at 500 ppm (cotton bollworm; [3]) | mortality at 500 ppm (brown rice planthopper)

COc1cc(OC(F)(F)C(F)OC(F)(F)F)nn1-c1cc([S+]([O-])CC(F)(F)F)c(C)cc1F (centres unmarked) [1-795, 1-{2-fluoro-4-methyl-5-(2,2,2-trifluoroethylsulfinyl)phenyl}-5-methoxy-3-{1,1,2-trifluoro-2-(trifluoromethoxy)ethoxy}pyrazole]
≥ 90%: mortality at 500 ppm (diamondback moth; in Brassica oleracea) | pest or weed control at 500 ppm (two-spotted spider mites; [1]) | mortality at 500 ppm (cotton bollworm; in Brassica oleracea) | mortality at 500 ppm (cotton aphid; in Cucumis sativus) | mortality at 500 ppm (brown rice planthopper)

Cc1cc(F)c(-n2nc(OCC(F)(F)C(F)(F)C(F)(F)F)cc2NC=O)cc1[S+]([O-])CC(F)(F)F (centres unmarked) [1-1594, 1-{2-fluoro-4-methyl-5-(2,2,2-trifluoroethylsulfinyl)phenyl}-5-formylamino-3-(2,2,3,3,4,4,4-heptafluorobutoxy)pyrazole]
≥ 90%: mortality at 500 ppm (diamondback moth; [2]) | mortality at 500 ppm (cotton bollworm; [3]) | mortality at 500 ppm (cotton aphid; [4])
